Measured values taken from patent publication US9115092B2, “Substituted quinazoline and pyrido-pyrimidine derivatives” (Asana Biosciences, LLC, priority 2010, dated 2015).

Experiments:
[1] = target: T1, PI3Kα (wild-type), P110/P85α (Homo sapiens, UniProt P42336); assay: PI3 Kinase TR-FRET assay, PI3Kα (wild-type); format: biochemical
T1 construct: made in house; host or cells: SF9 insect cells
Summary of the method: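 Sf9-expressed His-purified P110/P85α (5 ng) preincubated 60 min RT with compound and PIP2 in buffer with 40 mM MgCl2, 5 mM DTT; reaction started with ATP (PIP2 and ATP both 10 μM), 30 min RT. PIP3 detected by TR-FRET displacement, 665/615 nm ratio; IC50 from dose-response curves.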

mTOR kinase = target: T2, mTOR kinase (Homo sapiens, UniProt P42345); assay: mTOR kinase TR-FRET assay; format: biochemical; conditions: read-out: mTO R
T2 construct: purchased Millipore, USA
Summary of the method: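 Compounds preincubated 60 min with mTOR (5 ng) in HEPES pH 7.5, EGTA, MnCl2; ULight-p70 S6K Thr389 peptide (50 nM) and ATP (20 μM) then added, 60 min at room temperature. EDTA-stopped, Eu-anti-phospho antibody detection by TR-FRET (665/615 nm); IC50 from variable-slope sigmoidal fit.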

T1 sequence (P42336 whole entry): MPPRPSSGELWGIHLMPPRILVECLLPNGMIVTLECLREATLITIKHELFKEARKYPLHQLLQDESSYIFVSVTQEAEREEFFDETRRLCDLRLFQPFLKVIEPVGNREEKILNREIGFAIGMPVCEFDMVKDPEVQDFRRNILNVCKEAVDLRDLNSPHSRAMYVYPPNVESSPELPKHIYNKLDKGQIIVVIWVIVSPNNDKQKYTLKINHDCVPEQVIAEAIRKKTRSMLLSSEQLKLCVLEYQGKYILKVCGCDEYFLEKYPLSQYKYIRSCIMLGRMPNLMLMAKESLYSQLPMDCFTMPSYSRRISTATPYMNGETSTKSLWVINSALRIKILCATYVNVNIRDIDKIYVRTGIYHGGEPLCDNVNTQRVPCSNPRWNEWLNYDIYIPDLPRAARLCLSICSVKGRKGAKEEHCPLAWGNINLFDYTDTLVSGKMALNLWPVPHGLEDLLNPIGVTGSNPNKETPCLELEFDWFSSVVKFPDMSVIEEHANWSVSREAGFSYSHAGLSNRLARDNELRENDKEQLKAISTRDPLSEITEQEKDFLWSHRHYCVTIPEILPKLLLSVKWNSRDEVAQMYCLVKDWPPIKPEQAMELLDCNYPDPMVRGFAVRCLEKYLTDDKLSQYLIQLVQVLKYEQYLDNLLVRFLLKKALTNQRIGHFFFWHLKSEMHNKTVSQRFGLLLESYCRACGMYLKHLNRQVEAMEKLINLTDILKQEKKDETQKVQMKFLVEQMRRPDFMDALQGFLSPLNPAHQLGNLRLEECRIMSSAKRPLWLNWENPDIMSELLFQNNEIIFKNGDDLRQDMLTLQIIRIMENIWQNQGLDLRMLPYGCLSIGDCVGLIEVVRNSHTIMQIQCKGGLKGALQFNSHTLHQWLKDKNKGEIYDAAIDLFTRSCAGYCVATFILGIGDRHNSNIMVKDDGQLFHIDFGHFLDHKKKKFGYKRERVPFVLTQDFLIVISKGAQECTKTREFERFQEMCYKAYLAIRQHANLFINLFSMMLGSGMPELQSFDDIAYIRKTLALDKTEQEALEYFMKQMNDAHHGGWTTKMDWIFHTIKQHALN
T1 sequence (P27986 whole entry partner): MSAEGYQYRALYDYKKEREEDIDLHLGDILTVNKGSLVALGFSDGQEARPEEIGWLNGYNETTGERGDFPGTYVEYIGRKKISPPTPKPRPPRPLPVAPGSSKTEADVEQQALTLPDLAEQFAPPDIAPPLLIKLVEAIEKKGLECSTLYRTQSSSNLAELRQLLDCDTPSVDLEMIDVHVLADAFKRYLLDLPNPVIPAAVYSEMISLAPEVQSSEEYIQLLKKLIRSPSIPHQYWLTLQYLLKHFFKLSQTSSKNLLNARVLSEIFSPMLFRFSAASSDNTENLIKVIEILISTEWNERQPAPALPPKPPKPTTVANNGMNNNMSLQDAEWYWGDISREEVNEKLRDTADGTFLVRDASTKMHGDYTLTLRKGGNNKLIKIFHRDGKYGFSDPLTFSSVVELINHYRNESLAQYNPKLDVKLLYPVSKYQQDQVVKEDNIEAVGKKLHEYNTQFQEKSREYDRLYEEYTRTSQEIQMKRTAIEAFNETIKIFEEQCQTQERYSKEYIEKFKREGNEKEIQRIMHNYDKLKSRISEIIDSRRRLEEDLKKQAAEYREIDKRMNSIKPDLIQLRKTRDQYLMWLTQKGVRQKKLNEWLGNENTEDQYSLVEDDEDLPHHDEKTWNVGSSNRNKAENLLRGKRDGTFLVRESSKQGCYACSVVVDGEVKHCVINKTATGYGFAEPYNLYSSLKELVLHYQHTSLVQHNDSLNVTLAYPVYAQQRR

For `COc1ccc(-c2ccc3c(N4CCOCC4)nc(-c4ccc(NC(=O)Nc5ccc(C(=O)N(C)C)cc5F)cc4)nc3c2)cn1` [Example 170, 3-fluoro-4-(3-(4-(7-(6-methoxypyridin-3-yl)-4-morpholino-quinazolin-2-yl)phenyl)ureido)-N,N-dimethyl-benzamide], the IC50 [1] was less than 50 nM and the IC50 (mTOR kinase) was 50 to 200 nM.

In the case of `CN(C)C(=O)c1ccc(NC(=O)Nc2ccc(-c3nc(N4CCOCC4)c4ccc(-c5ccco5)cc4n3)cc2)c(Cl)c1` [Example 171, 3-chloro-4-(3-(4-(7-(furan-2-yl)-4-morpholino-quinazolin-2-yl)phenyl)ureido)-N,N-dimethyl-benzamide], the IC50 [1] is reported as 201 to 10000 nM and the IC50 (mTOR kinase) is reported as 201 to 10000 nM.

`CN(C)C(=O)c1ccc(NC(=O)Nc2ccc(-c3nc(N4CCOCC4)c4ccc(-c5cnn(C)c5)cc4n3)cn2)c(F)c1` [Example 172, 3-fluoro-N,N-dimethyl-4-(3-(5-(7-(1-methyl-1H-pyrazol-4-yl)-4-morpholino-quinazolin-2-yl)pyridin-2-yl)ureido)-benzamide] gave an IC50 [1] of less than 50 nM and an IC50 (mTOR kinase) of 201 to 10000 nM.

Work on `CN(C)C(=O)c1ccc(NC(=O)Nc2ccc(-c3nc(N4CCOCC4)c4cc(F)c(-c5cccnc5)cc4n3)cc2)c(F)c1` [Example 173, 3-fluoro-4-(3-(4-(6-fluoro-4-morpholino-7-(pyridin-3-yl)quinazolin-2-yl)phenyl)ureido)-N,N-dimethyl-benzamide] yielded an IC50 [1] of less than 50 nM and an IC50 (mTOR kinase) of less than 50 nM.

Compound `CN(C)C(=O)c1ccc(NC(=O)Nc2ccc(-c3nc(N4CCOCC4)c4cc(F)c(-c5cncnc5)cc4n3)cc2)c(F)c1` [Example 174, 3-fluoro-4-(3-(4-(6-fluoro-4-morpholino-7-(pyrimidin-5-yl)quinazolin-2-yl)phenyl)ureido)-N,N-dimethyl-benzamide] has an IC50 [1] of 50 to 200 nM and an IC50 (mTOR kinase) of less than 50 nM.

`CN(C)C(=O)c1ccc(NC(=O)Nc2ccc(-c3nc(N4CCOCC4)c4cc(F)c(-c5cccnc5)cc4n3)cn2)cc1` [Example 175, 4-(3-(5-(6-fluoro-4-morpholino-7-(pyridin-3-yl)quinazolin-2-yl)pyridin-2-yl)ureido)-N,N-dimethyl-benzamide] showed an IC50 [1] of less than 50 nM and an IC50 (mTOR kinase) of 50 to 200 nM.

`CN(C)C(=O)c1ccc(NC(=O)Nc2ccc(-c3nc(N4CCOCC4)c4cc(F)c(-c5cncnc5)cc4n3)cn2)cc1` [Example 176, 4-(3-(5-(6-fluoro-4-morpholino-7-(pyrimidin-5-yl)quinazolin-2-yl)pyridin-2-yl)ureido)-N,N-dimethyl-benzamide] showed an IC50 [1] of less than 50 nM and an IC50 (mTOR kinase) of 50 to 200 nM.

`CN(C)C(=O)c1ccc(NC(=O)Nc2ccc(-c3nc(N4CCOCC4)c4ccc(-c5ccc(N)nc5)cc4n3)cc2)cc1` [Example 177, 4-(3-(4-(7-(6-aminopyridin-3-yl)-4-morpholino-quinazolin-2-yl)phenyl)ureido)-N,N-dimethyl-benzamide] showed an IC50 [1] of less than 50 nM and an IC50 (mTOR kinase) of less than 50 nM.

`CN(C)C(=O)c1ccc(NC(=O)Nc2ccc(-c3nc(N4CCOCC4)c4ccc(-c5ccc(N)nc5)cc4n3)cc2)c(F)c1` [Example 178, 4-(3-(4-(7-(6-aminopyridin-3-yl)-4-morpholino-quinazolin-2-yl)phenyl)ureido)-3-fluoro-N,N-dimethyl-benzamide] showed an IC50 [1] of 50 to 200 nM and an IC50 (mTOR kinase) of less than 50 nM.

`COc1ccc2c(N3CCOCC3)nc(-c3ccc(NC(=O)Nc4ccc(C(=O)N(C)C)cc4)c(F)c3)nc2c1` [Example 182, 4-(3-(2-fluoro-4-(7-methoxy-4-morpholino-quinazolin-2-yl)phenyl)ureido)-N,N-dimethyl-benzamide] was tested, and the IC50 [1] was 50 to 200 nM and the IC50 (mTOR kinase) was less than 50 nM.

`CN(C)CCNC(=O)c1ccc(NC(=O)Nc2ccc(-c3nc(N4CCOCC4)c4ccc(-c5cncnc5)cc4n3)cc2)cc1` [Example 192, N-(2-(dimethylamino)ethyl)-4-(3-(4-(4-morpholino-7-(pyrimidin-5-yl)quinazolin-2-yl)phenyl)ureido)-benzamide] gave an IC50 [1] of 50 to 200 nM and an IC50 (mTOR kinase) of less than 50 nM.

Compound `CN1CCN(C(=O)c2ccc(NC(=O)Nc3ccc(-c4nc(N5CCOCC5)c5ccc(-c6ccncc6)cc5n4)cc3F)cc2)CC1` [Example 212, 1-(2-fluoro-4-(4-morpholino-7-(pyridin-4-yl)quinazolin-2-yl)phenyl)-3-(4-(4-methylpiperazine-1-carbonyl)phenyl)urea] has an IC50 [1] of 50 to 200 nM and an IC50 (mTOR kinase) of 50 to 200 nM.

Work on `CN(C)C(=O)c1ccc(NC(=O)Nc2ccc(-c3nc(N4CCOCC4)c4ncc(-c5ccc(CO)o5)cc4n3)cc2F)cc1` [Example 218, 4-(3-(2-fluoro-4-(7-(5-(hydroxymethyl)furan-2-yl)-4-morpholino-pyrido[3,2-d]pyrimidin-2-yl)phenyl)ureido)-N,N-dimethyl-benzamide] yielded an IC50 [1] of less than 50 nM and an IC50 (mTOR kinase) of 50 to 200 nM.

In the case of `CN(C)C(=O)c1ccc(NC(=O)Nc2ccc(-c3nc(N4CCOCC4)c4ccc(-c5ccc(CO)o5)cc4n3)cc2)c(F)c1` [Example 219, 3-fluoro-4-(3-(4-(7-(5-(hydroxymethyl)furan-2-yl)-4-morpholino-quinazolin-2-yl)phenyl)ureido)-N,N-dimethyl-benzamide], the IC50 [1] is reported as 50 to 200 nM and the IC50 (mTOR kinase) is reported as 50 to 200 nM.

`CN(C)CCNC(=O)c1ccc(-c2ccc3c(N4CCOCC4)nc(-c4ccc(NC(=O)Nc5ccc(C(=O)N(C)C)cc5)cc4)nc3c2)o1` [Example 225, N-(2-(dimethylamino)ethyl)-5-(2-(4-(3-(4-(dimethylcarbamoyl)phenyl)ureido)phenyl)-4-morpholino-quinazolin-7-yl)furan-2-carboxamide] gave an IC50 [1] of 50 to 200 nM and an IC50 (mTOR kinase) of less than 50 nM.

`CC(O)c1ccc(-c2ccc3c(N4CCOCC4)nc(-c4ccc(NC(=O)Nc5ccc(C(=O)N(C)C)cc5F)cc4)nc3c2)o1` (stereo not shown) [Example 227, 3-fluoro-4-(3-(4-(7-(5-(1-hydroxyethyl)furan-2-yl)-4-morpholino-quinazolin-2-yl)phenyl)ureido)-N,N-dimethyl-benzamide] showed an IC50 [1] of 201 to 10000 nM and an IC50 (mTOR kinase) of 50 to 200 nM.

Compound `CN(C)C(=O)c1ccc(NC(=O)Nc2ccc(-c3nc(N4CCOCC4)c4ccc(-c5ccc(C(=O)N(C)C)o5)cc4n3)cc2)cc1` [Example 229, 5-(2-(4-(3-(4-(dimethylcarbamoyl)phenyl)ureido)phenyl)-4-morpholine-quinazolin-7-yl)-N,N-dimethylfuran-2-carboxamide] has an IC50 [1] of less than 50 nM and an IC50 (mTOR kinase) of less than 50 nM.

For `CN(C)C(=O)c1ccc(NC(=O)Nc2ccc(-c3nc(N4CCOCC4)c4ncc(-c5cnc(N(C)C)nc5)cc4n3)cc2)cc1` [Example 230, 4-(3-(4-(7-(2-(dimethylamino)pyrimidin-5-yl)-4-morpholino-pyrido[3,2-d]pyrimidin-2-yl)phenyl)ureido)-N,N-dimethyl-benzamide], the IC50 [1] was less than 50 nM and the IC50 (mTOR kinase) was less than 50 nM.

For `CN(C)C(=O)c1ccc(NC(=O)Nc2ccc(-c3nc(N4CCOCC4)c4ccc(-c5cnc(N(C)C)nc5)cc4n3)cc2F)cc1` [Example 231, 4-(3-(4-(7-(2-(dimethylamino)pyrimidin-5-yl)-4-morpholino-quinazolin-2-yl)-2-fluorophenyl)ureido)-N,N-dimethyl-benzamide], the IC50 [1] was 50 to 200 nM and the IC50 (mTOR kinase) was less than 50 nM.

Compound `O=C(Nc1ccc(C(=O)N2CCC(O)C2)cc1)Nc1ccc(-c2nc(N3CCOCC3)c3ccc(-c4ccco4)cc3n2)cc1` (stereo not shown) [Example 232, 1-(4-(7-(furan-2-yl)-4-morpholino-quinazolin-2-yl)phenyl)-3-(4-(3-hydroxypyrrolidine-1-carbonyl)phenyl)urea] has an IC50 [1] of less than 50 nM and an IC50 (mTOR kinase) of less than 50 nM.

With `CN(C)CCNC(=O)c1ccc(NC(=O)Nc2ccc(-c3nc(N4CCOCC4)c4ccc(-c5ccco5)cc4n3)cc2)cc1` [Example 235, N-(2-(dimethylamino)ethyl)-4-(3-(4-(7-(furan-2-yl)-4-morpholino-quinazolin-2-yl)phenyl)ureido)-benzamide] the IC50 [1] was less than 50 nM and the IC50 (mTOR kinase) was less than 50 nM.

`CN(C)CCN(C)C(=O)c1ccc(NC(=O)Nc2ccc(-c3nc(N4CCOCC4)c4ccc(-c5ccco5)cc4n3)cc2)cc1` [Example 236, N-(2-(dimethylamino)ethyl)-4-(3-(4-(7-(furan-2-yl)-4-morpholino-quinazolin-2-yl)phenyl)ureido)-N-methyl-benzamide] gave an IC50 [1] of less than 50 nM and an IC50 (mTOR kinase) of less than 50 nM.

Compound `Cc1ccc(-c2ccc3c(N4CCOCC4)nc(-c4ccc(NC(=O)Nc5ccc(C(=O)N(C)C)cc5)cc4F)nc3c2)o1` [Example 239, 4-(3-(3-fluoro-4-(7-(5-methylfuran-2-yl)-4-morpholino-quinazolin-2-yl)phenyl)ureido)-N,N-dimethyl-benzamide] has an IC50 [1] of 50 to 200 nM and an IC50 (mTOR kinase) of 50 to 200 nM.

With `CN(C)C(=O)c1ccc(NC(=O)Nc2ccc(-c3nc(N4CCOCC4)c4ncc(-c5cccnc5F)cc4n3)cc2)cc1F` [Example 248, 2-fluoro-4-(3-(4-(7-(2-fluoropyridin-3-yl)-4-morpholino-pyrido[3,2-d]pyrimidin-2-yl)phenyl)ureido)-N,N-dimethyl-benzamide] the IC50 [1] was less than 50 nM and the IC50 (mTOR kinase) was less than 50 nM.

In the case of `CN(C)C(=O)c1ccc(NC(=O)Nc2ccc(-c3nc(N4CCOCC4)c4ccc(-c5cnn(C)c5)cc4n3)c(F)c2)cc1` [Example 249, 4-(3-(3-fluoro-4-(7-(1-methyl-1H-pyrazol-4-yl)-4-morpholino-quinazolin-2-yl)phenyl)ureido)-N,N-dimethyl-benzamide], the IC50 [1] is reported as 50 to 200 nM and the IC50 (mTOR kinase) is reported as less than 50 nM.

With `CN(C)C(=O)c1ccc(NC(=O)Nc2ccc(-c3nc(N4CCOCC4)c4ccc(-c5cncnc5)cc4n3)c(F)c2)cn1` [Example 251, 5-(3-(3-fluoro-4-(4-morpholino-7-(pyrimidin-5-yl)quinazolin-2-yl)phenyl)ureido)-N,N-dimethylpicolinamide] the IC50 [1] was 201 to 10000 nM and the IC50 (mTOR kinase) was less than 50 nM.
